Data on 16 compounds can be found in patent US20230212222A1 (ANYGEN CO., LTD., priority 2020, published 2023).

Data set [1] addresses T1, GPR39 (Homo sapiens, UniProt O43194).
T1 sequence (O43194 1-453): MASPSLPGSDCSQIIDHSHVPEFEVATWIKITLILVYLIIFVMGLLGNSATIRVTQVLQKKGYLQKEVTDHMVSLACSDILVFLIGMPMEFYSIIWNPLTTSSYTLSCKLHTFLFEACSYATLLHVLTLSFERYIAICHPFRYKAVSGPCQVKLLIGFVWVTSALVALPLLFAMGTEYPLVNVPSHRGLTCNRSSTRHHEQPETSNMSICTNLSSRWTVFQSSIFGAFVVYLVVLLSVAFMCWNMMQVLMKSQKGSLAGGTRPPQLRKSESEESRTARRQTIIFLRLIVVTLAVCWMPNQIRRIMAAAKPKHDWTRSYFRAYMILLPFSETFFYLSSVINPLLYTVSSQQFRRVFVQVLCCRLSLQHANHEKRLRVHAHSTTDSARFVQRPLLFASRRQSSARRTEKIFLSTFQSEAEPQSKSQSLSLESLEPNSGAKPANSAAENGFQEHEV
Description: luciferase assay system (SRE luciferase reporter gene) for GPR39 in CV-1 cells. Conditions: for ECmax (-fold induction over basal): CV-1 cells.
Description: (§1) Specifically, the fibroblast cell line CV-1 (1×10^5 cells/ml, Korea Cell Line Bank) was cultured in a 96 well cell culture plate for 24 hours, and then treated with GPR39 inserted into adenovirus and SRE (serum response element) luciferase at 50 MOI (multiplicity of infection) and 25 MOI virus for 3 hours, respectively, and then cultured for 24 hours.

Data set [2] deals with T1, GPR39.
Description: as §1
Setting [3] is: GPR39 and SRE luciferase adenovirus, treated 6 hours, luminometer.
The mark [4] stands for this setting: EC50, CV-1 cells, GPR39 and SRE luciferase adenovirus, treated 6 hours, luminometer.

Molecules are shown by their SMILES. Like-named read-outs stand apart in the source and are kept apart here. Square brackets hold non-standard residues; d marks the D form. Peptide text beside a SMILES is read from it. * marks the point of attachment. Tyr(3,5-(NO2)2) = N[C@@H](Cc1cc([N+](=O)[O-])c(O)c([N+](=O)[O-])c1)C(=O)O; His(Trt) = N[C@@H](Cc1cn(C(c2ccccc2)(c2ccccc2)c2ccccc2)cn1)C(=O)O; dHis(Trt) = N[C@H](Cc1cn(C(c2ccccc2)(c2ccccc2)c2ccccc2)cn1)C(=O)O; His(τ-CHPh2) = N[C@@H](Cc1cn(C(c2ccccc2)c2ccccc2)cn1)C(=O)O; Biotin = O=C1N[C@H]2[C@H](CS[C@H]2CCCCC(=O)*)N1; dPhe(4-Cl) = N[C@H](Cc1ccc(Cl)cc1)C(=O)O; dPhe(4-Me) = Cc1ccc(C[C@@H](N)C(=O)O)cc1; Dmt = Cc1cc(O)cc(C)c1C[C@H](N)C(=O)O; Myristoyl = CCCCCCCCCCCCCC(=O)*; Decanoyl = CCCCCCCCCC(=O)*; Octanoyl = CCCCCCCC(=O)*

Take `CCCCCCCC(=O)NCCCC[C@H](NC(=O)[C@@H](N)Cc1c[n+](CCCc2ccccc2)cn1CCCc1ccccc1)C(=O)N[C@@H](Cc1ccccc1)C(=O)N[C@@H](Cc1ccc(O)cc1)C(=O)O`: the “ECmax (-fold induction over basal)” value in data set [1] (setting [3]) is listed as 15 ± 2.12 -fold induction over basal.
Regarding `CCCCCCCC(=O)NCCCC[C@H](NC(=O)[C@@H](N)Cc1cncn1CCCC1CCCCC1)C(=O)N[C@@H](Cc1ccccc1)C(=O)N[C@@H](Cc1ccc(O)cc1)C(=O)O`, the “ECmax (-fold induction over basal)” value in data set [1] (setting [3]) is 16 ± 2.2 -fold induction over basal.
As to `CCCCCCCC(=O)NCCCC[C@H](NC(=O)[C@@H](N)Cc1c[n+](CCCC2CCCCC2)cn1CCCC1CCCCC1)C(=O)N[C@@H](Cc1ccccc1)C(=O)N[C@@H](Cc1ccc(O)cc1)C(=O)O`, a half-maximal response in data set [1] (EC50) required 33700 ± 1300 nM. Moreover, in data set [1] (setting [3]), the “ECmax (-fold induction over basal)” value is on record as 17.3 ± 1.22 -fold induction over basal.
For `CCCCCCCC(=O)NCCCC[C@H](NC(=O)[C@@H](N)Cc1cn(C(c2ccccc2)(c2ccccc2)c2ccccc2)cn1)C(=O)N[C@@H](Cc1ccccc1)C(=O)N[C@@H](Cc1ccc(O)cc1)C(=O)O` [HKFY-1, N6-octanoyl-N2-(Nt-trityl-L-histidyl)-L-lysyl-L-phenylalanyl-L-tyrosine] (H-[His(Trt)]K(Octanoyl)FY-OH), the “ECmax (-fold induction over basal)” value in data set [2] is 20.51 ± 0.57 -fold induction over basal. For the same compound, a half-maximal response in data set [1] (setting [4]) (EC50) required 150 ± 10 nM.
`CCCCCCCC(=O)NCCCC[C@H](NC(=O)[C@H](Cc1cn(C(c2ccccc2)(c2ccccc2)c2ccccc2)cn1)NC(=O)CCCC[C@@H]1SC[C@@H]2NC(=O)N[C@@H]21)C(=O)N[C@@H](Cc1ccccc1)C(=O)N[C@@H](Cc1ccc(O)cc1)C(=O)O` [HKFY-2, N6-octanoyl-N2-(Na-(5-((3aS,4S,6aR)-2-oxohexahydro-1H-thieno[3,4-d]imidazol-4-yl)pentanoyl)-Nt-trityl-L-histidyl)-L-lysyl-L-phenylalanyl-L-tyrosine] (Biotin-[His(Trt)]K(Octanoyl)FY-OH): in data set [2], the “ECmax (-fold induction over basal)” value is reported as 15 ± 1.87 -fold induction over basal. In addition, in data set [1] (setting [4]), it took 140 ± 70 nM to reach a half-maximal effect (EC50).
For `CCCCCCCC(=O)NCCCC[C@H](NC(=O)[C@@H](N)Cc1cn(C(c2ccccc2)(c2ccccc2)c2ccc(C)cc2)cn1)C(=O)N[C@@H](Cc1ccccc1)C(=O)N[C@@H](Cc1ccc(O)cc1)C(=O)O` [HKFY-5, N2-(Nt-(diphenyl(p-tolyl)methyl)-L-histidyl)-N6-octanoyl-L-lysyl-L-phenylalanyl-L-tyrosine], the “ECmax (-fold induction over basal)” value in data set [2] was 16 ± 1.7 -fold induction over basal. The EC50 – broadly, the concentration at which the effect is half-maximal – in data set [1] (setting [4]) was found to be 1840 ± 200 nM.
As for `CCCCCCCC(=O)NCCCC[C@H](NC(=O)[C@H](N)Cc1cn(C(c2ccccc2)(c2ccccc2)c2ccccc2)cn1)C(=O)N[C@H](Cc1ccc(Cl)cc1)C(=O)N[C@H](Cc1ccc(O)cc1)C(=O)O` [HKFY-14, ((R)-2-((S)-2-((R)-2-amino-3-(1-trityl-1H-imidazol-4-yl)propanamido)-6-octanamidohexanamido)-3-(4-chlorophenyl)propanoyl)-D-tyrosine] (H-[dHis(Trt)]K(Octanoyl)[dPhe(4-Cl)][dY]-OH), in data set [2], the “ECmax (-fold induction over basal)” value is reported as 20.9 ± 1.4 -fold induction over basal. Further, in data set [1] (setting [4]), a half-maximal effect (EC50) was put at 20 ± 3 nM.
With `CCCCCCCC(=O)NCCCC[C@@H](NC(=O)[C@@H](N)Cc1cn(C(c2ccccc2)(c2ccccc2)c2ccccc2)cn1)C(=O)N[C@H](Cc1ccc(Cl)cc1)C(=O)N[C@@H](Cc1ccc(O)cc1)C(=O)O` [HKFY-16, ((R)-2-((R)-2-((S)-2-amino-3-(1-trityl-1H-imidazol-4-yl)propanamido)-6-octanamidohexanamido)-3-(4-chlorophenyl)propanoyl)-L-tyrosine] (H-[His(Trt)][dK](Octanoyl)[dPhe(4-Cl)]Y-OH), in data set [2], the “ECmax (-fold induction over basal)” value was 27.9 ± 3.4 -fold induction over basal. Further, the EC50 in data set [1] (setting [4]) turned out to be 240 ± 20 nM.
Consider `CCCCCCCCCC(=O)NCCCC[C@H](NC(=O)[C@@H](N)Cc1cn(C(c2ccccc2)(c2ccccc2)c2ccccc2)cn1)C(=O)N[C@@H](Cc1ccccc1)C(=O)N[C@@H](Cc1ccc(O)cc1)C(=O)O` [HKFY-24, N6-decanoyl-N2-(Nt-trityl-L-histidyl)-L-lysyl-L-phenylalanyl-L-tyrosine] (H-[His(Trt)]K(Decanoyl)FY-OH), for which the “ECmax (-fold induction over basal)” value in data set [2] is 7.03 ± 0.57 -fold induction over basal. Moreover, the response in data set [1] (setting [4]) was half-maximal at 240 ± 70 nM (EC50).
In the same order, the values of `CCCCCCCCCCCCCC(=O)NCCCC[C@H](NC(=O)[C@@H](N)Cc1cn(C(c2ccccc2)(c2ccccc2)c2ccccc2)cn1)C(=O)N[C@@H](Cc1ccccc1)C(=O)N[C@@H](Cc1ccc(O)cc1)C(=O)O` [HKFY-26, N6-tetradecanoyl-N2-(Nt-trityl-L-histidyl)-L-lysyl-L-phenylalanyl-L-tyrosine] (H-[His(Trt)]K(Myristoyl)FY-OH) are 19.82 ± 0.57 -fold induction over basal and 280 ± 20 nM.
Turning to `CCCCCCCC(=O)NCCCC[C@H](NC(=O)[C@@H](N)Cc1cn(C(c2ccccc2)(c2ccccc2)c2ccccc2)cn1)C(=O)N[C@H](Cc1ccc(C)cc1)C(=O)N[C@@H](Cc1ccc(O)cc1)C(=O)O` [HKFY-30, ((R)-2-((S)-2-((S)-2-amino-3-(1-trityl-1H-imidazol-4-yl)propanamido)-6-octanamidohexanamido)-3-(p-tolyl)propanoyl)-L-tyrosine] (H-[His(Trt)]K(Octanoyl)[dPhe(4-Me)]Y-OH), the “ECmax (-fold induction over basal)” value in data set [2] is listed as 23.88 ± 3.04 -fold induction over basal. In data set [1] (setting [4]), this compound yielded an EC50 of 8 ± 1 nM. Further, in data set [1] (comment on Table 3), the “ECmax value (in words)” value is given as “high ECmax value”. Also, the “activity level for GPR39 (in words)” value is recorded as “most excellent activity” in data set [1] (comment on Table 3, listed as HIKFY-30) and “higher activity level than other HJKFY derivatives” in data set [1] (comment on Table 3, listed as HJKFY-30).
On to `CCCCCCCC(=O)NCCCC[C@H](NC(=O)[C@H](N)Cc1cn(C(c2ccccc2)(c2ccccc2)c2ccccc2)cn1)C(=O)N[C@H](Cc1ccc(C)cc1)C(=O)N[C@@H](Cc1ccc(O)cc1)C(=O)O` [HKFY-31, ((R)-2-((S)-2-((R)-2-amino-3-(1-trityl-1H-imidazol-4-yl)propanamido)-6-octanamidohexanamido)-3-(p-tolyl)propanoyl)-L-tyrosine] (H-[dHis(Trt)]K(Octanoyl)[dPhe(4-Me)]Y-OH), for which the “ECmax (-fold induction over basal)” value in data set [2] is 20.9 ± 2.51 -fold induction over basal. In addition, the EC50 in data set [1] (setting [4]) amounted to 20 ± 3 nM.
Take `CCCCCCCC(=O)NCCCC[C@H](NC(=O)[C@@H](N)Cc1cn(C(c2ccccc2)c2ccccc2)cn1)C(=O)N[C@@H](Cc1ccccc1)C(=O)N[C@@H](Cc1ccc(O)cc1)C(=O)O` [HKFY-33, N2-(Nt-benzhydryl-L-histidyl)-N6-octanoyl-L-lysyl-L-phenylalanyl-L-tyrosine] (H-[His(τ-CHPh2)]K(Octanoyl)FY-OH): the “ECmax (-fold induction over basal)” value in data set [2] is 20 ± 0.57 -fold induction over basal. Also, the midpoint of the response in data set [1] (setting [4]), the EC50, lay at 150 ± 70 nM.
`CCCCCCCC(=O)NCCCC[C@H](NC(=O)[C@@H](N)Cc1cn(C(c2ccccc2)c2ccccc2)cn1)C(=O)N[C@H](Cc1ccc(C)cc1)C(=O)N[C@@H](Cc1c(C)cc(O)cc1C)C(=O)O` [HKFY-36, (S)-2-((R)-2-((S)-2-((S)-2-amino-3-(1-benzhydryl-1H-imidazol-4-yl)propanamido)-6-octanamidohexanamido)-3-(p-tolyl)propanamido)-3-(4-hydroxy-2,6-dimethylphenyl)propanoic acid] (H-[His(τ-CHPh2)]K(Octanoyl)[dPhe(4-Me)][Dmt]-OH) gave an EC50 in data set [1] of 150 ± 50 nM. The “ECmax (-fold induction over basal)” value in data set [1] (setting [3]) is 9.9 ± 0.28 -fold induction over basal.
Consider `CCCCCCCC(=O)NCCCC[C@H](NC(=O)[C@@H](N)Cc1cn(C(c2ccccc2)(c2ccccc2)c2ccccc2)cn1)C(=O)N[C@@H](Cc1ccccc1)C(=O)N[C@@H](Cc1ccc(O)cc1)C(=O)N[C@@H](CO)C(=O)N[C@@H](CCC(N)=O)C(=O)N[C@@H](CC(=O)O)C(=O)NCC(=O)N[C@@H](C)C(=O)N[C@@H](CCCNC(=N)N)C(=O)N[C@@H](Cc1ccccc1)C(N)=O` [HKFY-41, (3S,6S,9S,12S,15S,18S)-3-((2-(((S)-1-(((S)-1-(((S)-1-amino-1-oxo-3-phenylpropan-2-yl)amino)-5-guanidino-1-oxopentan-2-yl)amino)-1-oxopropan-2-yl)amino)-2-oxoethyl)carbamoyl)-18-((S)-2-amino-3-(1-trityl-1H-imidazol-4-yl)propanamido)-6-(3-amino-3-oxopropyl)-15-benzyl-12-(4-hydroxybenzyl)-9-(hydroxymethyl)-5,8,11,14,17,24-hexaoxo-4,7,10,13,16,23-hexaazahentriacontanoic acid] (H-[His(Trt)]K(Octanoyl)FYSQDGARF-NH2), for which the “ECmax (-fold induction over basal)” value in data set [1] (setting [3]) is on record as 12.2 ± 0.02 -fold induction over basal.
Consider `CCCCCCCC(=O)NCCCC[C@H](NC(=O)[C@@H](N)Cc1cn(C(c2ccccc2)c2ccccc2)cn1)C(=O)N[C@H](Cc1ccc(C)cc1)C(=O)N[C@@H](Cc1cc([N+](=O)[O-])c(O)c([N+](=O)[O-])c1)C(=O)O` [HKFY-69, (S)-2-((R)-2-((S)-2-((S)-2-amino-3-(1-benzhydryl-1H-imidazol-4-yl)propanamido)-6-octanamidohexanamido)-3-(p-tolyl)propanamido)-3-(4-hydroxy-3,5-dinitrophenyl)propanoic acid] (H-[His(τ-CHPh2)]K(Octanoyl)[dPhe(4-Me)][Tyr(3,5-(NO2)2)]-OH), for which the “ECmax (-fold induction over basal)” value in data set [1] (setting [3]) is 12.2 ± 2.5 -fold induction over basal.
